From ChEMBL document CHEMBL3797077, “Design and synthesis of N-(4-aminopyridin-2-yl)amides as B-Raf(V600E) inhibitors” (Bioorg Med Chem Lett, 2016)

How the values were obtained:
[1] = target: Serine/threonine-protein kinase B-raf (Homo sapiens, UniProt P15056, V600E); test: Inhibition of recombinant human N-terminal GST-tagged B-Raf V600E mutant expressed in baculovirus expression system using Z'-LYTE Ser/Thr3 peptide as substrate incubated for 1 hr by FRET-based Z'-LYTE assay
[2] = Cytotoxicity against human COLO205 cells harboring B-Raf V600E mutant assessed as growth inhibition after 72 hrs by MTT assay; type: functional, cell-based; details: COLO 205, 72 h
[3] = Cytotoxicity against human HCT116 cells harboring wild type B-Raf assessed as growth inhibition after 72 hrs by MTT assay; type: functional, cell-based; details: HCT-116, 72 h
HT-29 = test: Cytotoxicity against human HT-29 cells harboring B-Raf V600E mutant assessed as growth inhibition after 72 hrs by MTT assay; type: functional, cell-based; details: HT-29, 72 h
[4] = target: Serine/threonine-protein kinase B-raf (Homo sapiens, UniProt P15056); test: Inhibition of recombinant wild type full length human GST-tagged B-Raf expressed in baculovirus expression system using Z'-LYTE Ser/Thr3 peptide as substrate incubated for 1 hr by FRET-based Z'-LYTE assay
HCT-116 = test: Selectivity ratio of IC50 for human HCT116 cells harboring wild type B-Raf to IC50 for human HT-29 cells harboring B-Raf V600E mutant; type: functional
COLO 205 = test: Selectivity ratio of IC50 for human HCT116 cells harboring wild type B-Raf to IC50 for human COLO205 cells harboring B-Raf V600E mutant; type: functional

Chain of Serine/threonine-protein kinase B-raf (Homo sapiens, UniProt P15056) (P15056 whole entry): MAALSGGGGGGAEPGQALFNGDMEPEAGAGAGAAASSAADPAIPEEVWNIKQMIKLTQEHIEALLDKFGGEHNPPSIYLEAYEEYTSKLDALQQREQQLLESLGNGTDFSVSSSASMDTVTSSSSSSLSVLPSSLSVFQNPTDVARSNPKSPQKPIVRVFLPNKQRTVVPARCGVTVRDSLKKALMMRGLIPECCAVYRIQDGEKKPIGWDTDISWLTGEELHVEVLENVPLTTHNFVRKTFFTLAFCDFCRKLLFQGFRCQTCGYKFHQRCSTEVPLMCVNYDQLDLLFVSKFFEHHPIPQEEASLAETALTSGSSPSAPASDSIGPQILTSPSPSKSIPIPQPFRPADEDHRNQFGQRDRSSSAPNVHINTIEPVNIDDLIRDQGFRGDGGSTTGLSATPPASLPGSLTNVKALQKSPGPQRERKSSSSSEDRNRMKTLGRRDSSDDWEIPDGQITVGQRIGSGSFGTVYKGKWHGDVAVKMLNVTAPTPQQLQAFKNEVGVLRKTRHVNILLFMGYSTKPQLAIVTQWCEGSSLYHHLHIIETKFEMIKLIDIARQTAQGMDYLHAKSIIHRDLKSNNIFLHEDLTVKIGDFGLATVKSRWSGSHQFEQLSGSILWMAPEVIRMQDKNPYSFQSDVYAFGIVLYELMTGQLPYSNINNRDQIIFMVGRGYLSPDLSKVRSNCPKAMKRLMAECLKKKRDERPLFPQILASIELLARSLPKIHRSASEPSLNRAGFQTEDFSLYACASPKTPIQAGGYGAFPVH
Chain of Serine/threonine-protein kinase B-raf (Homo sapiens, UniProt P15056, V600E) (P15056 2-766 V600E limits assumed): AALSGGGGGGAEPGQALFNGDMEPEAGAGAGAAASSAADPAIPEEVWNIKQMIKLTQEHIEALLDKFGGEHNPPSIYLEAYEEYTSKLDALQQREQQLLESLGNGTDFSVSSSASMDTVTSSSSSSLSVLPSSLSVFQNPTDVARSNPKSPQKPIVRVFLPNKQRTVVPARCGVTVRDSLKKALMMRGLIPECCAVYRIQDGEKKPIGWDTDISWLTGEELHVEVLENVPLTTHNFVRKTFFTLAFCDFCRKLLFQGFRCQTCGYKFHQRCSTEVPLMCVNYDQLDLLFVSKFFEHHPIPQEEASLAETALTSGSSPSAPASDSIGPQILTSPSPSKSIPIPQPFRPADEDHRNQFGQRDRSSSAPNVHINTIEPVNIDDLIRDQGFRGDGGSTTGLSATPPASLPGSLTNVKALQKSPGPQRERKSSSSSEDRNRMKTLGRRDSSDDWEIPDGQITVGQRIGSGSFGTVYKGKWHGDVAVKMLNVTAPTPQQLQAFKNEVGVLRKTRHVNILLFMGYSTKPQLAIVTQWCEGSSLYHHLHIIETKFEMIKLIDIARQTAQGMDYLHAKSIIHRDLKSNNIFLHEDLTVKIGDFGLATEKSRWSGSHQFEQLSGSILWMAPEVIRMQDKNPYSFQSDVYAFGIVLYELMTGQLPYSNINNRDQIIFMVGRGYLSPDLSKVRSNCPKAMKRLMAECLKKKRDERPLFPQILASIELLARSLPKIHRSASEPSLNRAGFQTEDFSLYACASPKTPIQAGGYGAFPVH

Structure (SMILES)	IC50 [1]	IC50 [2]	IC50 [3]	IC50 (HT-29)	IC50 [4]	further results
O=C(Nc1cccc(Nc2ccnc(NC(=O)C3CC3)c2)c1)c1cccc(Cl)c1	785 nM	–	–	–	–	–
CC(C)c1cccc(C(=O)Nc2cccc(Nc3ccnc(NC(=O)C4CC4)c3)c2)c1	13 nM	444 nM	1060 nM	462 nM	148 nM	–
O=C(Nc1cccc(Nc2ccnc(NC(=O)C3CC3)c2)c1)c1cccc(C(F)(F)F)c1	141 nM	–	–	–	–	–
CC(C)(C#N)c1cccc(C(=O)Nc2cccc(Nc3ccnc(NC(=O)C4CC4)c3)c2)c1	38 nM	136 nM	1090 nM	94 nM	476 nM	Ratio IC50 (HCT-116): 12; Ratio IC50 (COLO 205): 12
CCC(=O)Nc1cc(Nc2cccc(NC(=O)c3cccc(C4CC4)c3)c2)ccn1	125 nM	–	–	–	–	–
CC(C)C(=O)Nc1cc(Nc2cccc(NC(=O)c3cccc(C4CC4)c3)c2)ccn1	420 nM	–	–	–	–	–
O=C(Nc1cccc(Nc2ccnc(NC(=O)C3CC3)c2)c1)c1cccc([N+](=O)[O-])c1	1510 nM	–	–	–	–	–
O=C(Nc1cccc(Nc2ccnc(NC(=O)C3CCC3)c2)c1)c1cccc(C2CC2)c1	182 nM	–	–	–	–	–
O=C(Nc1cccc(Nc2ccnc(NC(=O)C3CCCCC3)c2)c1)c1cccc(C2CC2)c1	563 nM	–	–	–	–	–
O=C(Nc1cccc(Nc2ccnc(NC(=O)C3CC3)c2)c1)c1cccc(C2CC2)c1	35 nM	111 nM	221 nM	92 nM	453 nM	–
N#Cc1c(Oc2ccc(F)c(NC(=O)Cc3cccc(C(F)(F)F)c3)c2)ccc2nc(NC(=O)C3CC3)sc12	–	25 nM	362 nM	33 nM	77 nM	–
CC(C)(C)c1cccc(C(=O)Nc2cccc(Nc3ccnc(NC(=O)C4CC4)c3)c2)c1	20 nM	787 nM	1380 nM	991 nM	240 nM	–
CC(=O)Nc1cc(Nc2cccc(NC(=O)c3cccc(C4CC4)c3)c2)ccn1	50 nM	131 nM	367 nM	236 nM	1200 nM	–
N#CC1(c2cccc(C(=O)Nc3cccc(Nc4ccnc(NC(=O)C5CC5)c4)c3)c2)CC1	79 nM	725 nM	1350 nM	791 nM	2030 nM	–
Cc1cccc(C(=O)Nc2cccc(Nc3ccnc(NC(=O)C4CC4)c3)c2)c1	1210 nM	–	–	–	–	–
O=C(Nc1cccc(Nc2ccnc(NC(=O)C3CCCC3)c2)c1)c1cccc(C2CC2)c1	434 nM	–	–	–	–	–
O=C(Nc1cccc(Nc2ccnc(NC(=O)C3CC3)c2)c1)c1ccc(C(F)(F)F)cc1	> 10000 nM	–	–	–	–	–
CCc1cccc(C(=O)Nc2cccc(Nc3ccnc(NC(=O)C4CC4)c3)c2)c1	110 nM	–	–	–	–	–
CC(C)(C)C(=O)Nc1cc(Nc2cccc(NC(=O)c3cccc(C4CC4)c3)c2)ccn1	1030 nM	–	–	–	–	–
N#Cc1cccc(C(=O)Nc2cccc(Nc3ccnc(NC(=O)C4CC4)c3)c2)c1	3530 nM	–	–	–	–	–
O=C(Nc1cccc(Nc2ccnc(NC(=O)C3CC3)c2)c1)c1ccccc1C(F)(F)F	> 10000 nM	–	–	–	–	–
CCCS(=O)(=O)Nc1ccc(F)c(C(=O)c2c[nH]c3ncc(-c4ccc(Cl)cc4)cc23)c1F [VEMURAFENIB]	–	44 nM	14600 nM	156 nM	–	–
